Results published in patent US20110105509A1 (Wyeth, LLC, priority 2009, published 2011).

biological target: T1, CRTH2 (Homo sapiens, UniProt Q9Y5Y4); assay: FRET based competitive immunoassay (cAMP) in CRTH2 expressing CHO cells; format: cell-based; details: CRTH2 expressing CHO cells incubated with forskolin and PGD2; Eu3+ cryptate-labeled anti-cAMP and d2-labeled cAMP
T1 construct: expressed in transfected cells; host or cells: CHO cells
T1 sequence (Q9Y5Y4 1-395): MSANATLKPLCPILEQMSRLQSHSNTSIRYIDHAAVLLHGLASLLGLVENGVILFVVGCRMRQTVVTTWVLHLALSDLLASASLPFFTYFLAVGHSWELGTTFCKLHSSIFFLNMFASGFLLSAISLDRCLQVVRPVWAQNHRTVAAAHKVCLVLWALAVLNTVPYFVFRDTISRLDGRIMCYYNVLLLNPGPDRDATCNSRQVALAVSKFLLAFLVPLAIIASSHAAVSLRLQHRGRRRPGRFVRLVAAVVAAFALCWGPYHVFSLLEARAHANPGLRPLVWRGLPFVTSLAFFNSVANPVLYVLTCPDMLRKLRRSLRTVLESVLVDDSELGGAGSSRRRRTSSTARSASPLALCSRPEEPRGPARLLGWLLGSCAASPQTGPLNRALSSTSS
Description: FRET Assay: To evaluate potency compounds were tested in a FRET based competitive immunoassay in which CRTH2 expressing CHO cells were incubated in the presence of forskolin and PGD2 along with Eu3+ cryptate-labeled anti-cAMP and d2-labeled cAMP.

Row | SMILES | IC50
1 | Cc1c(Cc2ccc(=O)n(Cc3cccc(F)c3)n2)c2cc(F)ccc2n1CC(=O)O [Example 341, (3-{[1-(3-fluorobenzyl)-6-oxo-1,6-dihydropyridazin-3-yl]methyl}-5-fluoro-2-methyl-1H-indol-1-yl)acetic acid] | 33 nM
2 | Cc1c(Cc2ccc(=O)n(Cc3ccc(F)cc3)n2)c2cc(F)ccc2n1CC(=O)O [Example 342, (3-{[1-(4-fluorobenzyl)-6-oxo-1,6-dihydropyridazin-3-yl]methyl}-5-fluoro-2-methyl-1H-indol-1-yl)acetic acid] | 13 nM
3 | Cc1c(Cc2ccc(=O)n(CC(C)(C)C)n2)c2cc(F)ccc2n1CC(=O)O [Example 343, (3-{[1-(2,2-dimethylpropyl)-6-oxo-1,6-dihydropyridazin-3-yl]methyl}-5-fluoro-2-methyl-1H-indol-1-yl)acetic acid] | 142 nM
4 | Cc1c(Cc2ccc(=O)n(CCCC(F)(F)F)n2)c2cc(F)ccc2n1CC(=O)O [Example 344, 2-(5-fluoro-2-methyl-3-((6-oxo-1-(4,4,4-trifluorobutyl)-1,6-dihydropyridazin-3-yl)-methyl)-1H-indol-1-yl)acetic acid] | 17 nM
5 | Cc1c(Cc2ccc(=O)n(CC(F)(F)F)n2)c2cc(F)ccc2n1CC(=O)O [Example 345, (5-fluoro-2-methyl-3-{[6-oxo-1-(2,2,2-trifluoroethyl)-1,6-dihydropyridazin-3-yl]-methyl}-1H-indol-1-yl)acetic acid] | 31 nM
6 | Cc1c(Cc2ccc(=O)n(Cc3ccccc3)c2)c2ccccc2n1CC(=O)O [Example 348, {3-[(1-benzyl-6-oxo-1,6-dihydropyridin-3-yl)methyl]-2-methyl-1H-indol-1-yl}acetic acid] | 82 nM

Now those with a lower IC50, led by results:

Row | IC50 | SMILES
7 | 4 nM | Cc1c(Cc2ccc(=O)n(Cc3cccc(F)c3F)n2)c2cc(F)ccc2n1CC(=O)O [Example 339, (3-{[1-(2,3-difluorobenzyl)-6-oxo-1,6-dihydropyridazin-3-yl]methyl}-5-fluoro-2-methyl-1H-indol-1-yl)acetic acid]
8 | 3 nM | Cc1c(Cc2ccc(=O)n(Cc3ccccc3F)n2)c2cc(F)ccc2n1CC(=O)O [Example 340, (3-{[1-(2-fluorobenzyl)-6-oxo-1,6-dihydropyridazin-3-yl]methyl}-5-fluoro-2-methyl-1H-indol-1-yl)acetic acid]
9 | 11 nM | Cc1c(Cc2ccc(=O)n(Cc3ccccc3)c2)c2cc(F)ccc2n1CC(=O)O [Example 346, {3-[(1-benzyl-6-oxo-1,6-dihydropyridin-3-yl)methyl]-5-fluoro-2-methyl-1H-indol-1-yl}acetic acid]
10 | 11 nM | Cc1c(Cc2ccc(=O)n(Cc3ccccc3)c2)c2cc(Cl)ccc2n1CC(=O)O [Example 347, {3-[(1-benzyl-6-oxo-1,6-dihydropyridin-3-yl)methyl]-5-chloro-2-methyl-1H-indol-1-yl}acetic acid]
